Experimental data published in EP2951180B1, “2,6,7,8 SUBSTITUTED PURINES AS HDM2 INHIBITORS” (Merck Sharp & Dohme Corp., priority 2013, dated 2014).
Where two headings read alike, the source gives them in different places.

Target: T1, HDM2 (Homo sapiens, UniProt Q00987)
T1 construct: Thioredoxin (N); made in house; host or cells: E. coli strain BL21(DE3)Rosetta
Assay: HDM2 FRET assay (inhibition of binding of FITC labeled p53-pocket peptide to HDM2)
Details: for IC50: read-out: FRET IC50
Procedure, shortened: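 Signal is read as the 520/495 nm emission ratio and converted to percent inhibition; nonlinear sigmoidal regression yields IC50. The assay mixes HDM2 (0.5 nM), FITC-p53 peptide (3 nM) and Tb anti-His antibody (0.25 nM) at 0.1% DMSO.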

[1] = 0.5 nM HDM2 (residues 17 to 125), 3nM peptide, two hour incubation at room temperature

T1 sequence (Q00987 17-125): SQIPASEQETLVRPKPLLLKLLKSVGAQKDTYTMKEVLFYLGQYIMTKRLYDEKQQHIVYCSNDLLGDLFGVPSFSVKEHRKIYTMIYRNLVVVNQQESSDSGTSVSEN

CC1CN(C)CCN1c1nc2nc(-c3noc(=O)[nH]3)nc(-c3cccc(Cl)c3)c2n1C[C@H]1CC[C@H](C)CC1 (relative stereo) [Example 16.53, 3-{6-(3-chlorophenyl)-8-(2,4-dimethylpiperazin-1-yl)-7-[(trans-4-methylcyclohexyl)methyl]-7H-purin-2-yl}-1,2,4-oxadiazol-5(4H)-one]
IC50 [1]: 42.8 nM

C[C@@H](Nc1nc(-c2noc(=O)[nH]2)nc2nc(C(F)(F)c3ccccc3)n(C[C@H]3CC[C@H](C)CC3)c12)C1CCC1 [Example 22.79, 3-(6-{[(1R)-1-cyclobutylethyl]amino}-8-[difluoro(phenyl)methyl]-7-[(trans-4-methylcyclohexyl)methyl]-7H-purin-2-yl)-1,2,4-oxadiazol-5(4H)-one]
IC50 (Table 22): 3.36 nM

C[C@@H](Nc1nc(-c2noc(=O)[nH]2)nc2nc(C(C)(O)C3CCOCC3)n(C[C@H]3CC[C@H](C)CC3)c12)C1CCC1 (stereo partly drawn) [Example 22.38, 3-(6-{[(1R)-1-cyclobutylethyl]amino}-8-[1-hydroxy-1-(tetrahydro-2H-pyran-4-yl)ethyl]-7-[(trans-4-methylcyclohexyl)methyl] -7H-purin-2-yl)-1,2,4-oxadiazol-5(4H)-one]
IC50 (Table 22): 4.76 nM

C[C@@H](Nc1nc(C(=O)O)nc2nc(-c3nccs3)n(C[C@H]3CC[C@H](C)CC3)c12)C1CCC1 [Example 15.11, 6-(((R)-1-cyclobutylethyl)amino)-7-((trans-4-methylcyclohexyl)methyl)-8-(thiazol-2-yl)-7H-purine-2-carboxylic acid]
IC50 [1]: 2.45 nM

C[C@@H](Nc1nc(C(=O)O)nc2nc(N3CCOC[C@H]3c3ccccc3)n(Cc3ccc(C(F)(F)F)cc3)c12)C1CCC1 [Example 9.50, 6-{[(1R)-1-cyclobutylethyl]amino}-8-[(3R)-3-phenylmorpholin-4-yl]-7-[4-(trifluoromethyl)benzyl]-7H-purine-2-carboxylic acid]
IC50 (Table 9): 1.76 nM

C[C@@H](Nc1nc(CO)nc2nc(N3CCOC[C@H]3c3ccccc3)n(Cc3ccc(C(F)(F)F)cc3)c12)C1CCC1 [Example 12.33, (6-{[(1R)-1-cyclobutylethyl]amino}-8-[(3R)-3-phenylmorpholin-4-yl]-7-[4-(trifluoromethyl)benzyl]-7H-purin-2-yl)methanol]
IC50 [1]: 151 nM

C[C@@H](Nc1nc(C(=O)O)nc2nc(C3=N[C@H](c4ccccc4)CO3)n(Cc3ccc(C(F)(F)F)cc3)c12)C1CCC1 [Example 10.22, 6-(((R)-1-Cyclobutylethyl)amino)-8-((R)-4-phenyl-4,5-dihydrooxazol-2-yl)-7-(4-(trifluoromethyl)benzyl)-7H-purine-2-carboxylic acid]
IC50 (Table 10): 28.4 nM

CC(CN1CCCC1)CN(C)c1nc2nc(-c3noc(=O)[nH]3)nc(N[C@H](C)C3CCC3)c2n1Cc1ccc(C(F)(F)F)cc1 (stereo partly drawn) [Example 9.104, 3-(6-{[(1R)-1-cyclobutylethyl]amino}-8-[methyl(2-methyl-3-pyrrolidin-1-ylpropyl)amino]-7-[4-(trifluoromethyl)benzyl]-7H-purin-2-yl)-1,2,4-oxadiazol-5(4H)-one]
IC50 (Table 9): 63.2 nM

C[C@@H](Nc1nc(S(=O)(=O)CC(F)(F)F)nc2nc(N3CCOC[C@H]3c3ccccc3)n(C[C@H]3CC[C@H](C)CC3)c12)C1CCC1 [Example 14.15, N-[(1R)-1-cyclobutylethyl]-7-[(trans-4-methylcyclohexyl)methyl]-8-[(3R)-3-phenylmorpholin-4-yl]-2-[(2,2,2-trifluoroethyl)sulfonyl]-7H-purin-6-amine]
IC50 [1]: 220 nM

C[C@@H]1OCCN(c2nc3nc(-c4n[nH]c(=O)o4)nc(N[C@H](C)C4CCC4)c3n2C[C@H]2CC[C@H](C)CC2)[C@@H]1c1ccccc1 [Example 11.164, 5-(6-{[(1R)-1-cyclobutylethyl]amino}-7-[(trans-4-methylcyclohexyl)methyl]-8-[(2S,3R)-2-methyl-3-phenylmorpholin-4-yl]-7H-purin-2-yl)-1,3,4-oxadiazol-2(3H)-one]
IC50 (Table 11): 31 nM

Cc1cccc(-c2nc3nc(C(=O)O)nc(N[C@H](C)C4CC4)c3n2Cc2ccc(Cl)c(F)c2)c1 [Example 6.17, 7-(4-chloro-3-fluorobenzyl)-6-{[(1R)-1-cyclopropylethyl]amino}-8-(3-methylphenyl)-7H-purine-2-carboxylic acid]
IC50 (Table 6): 25.8 nM

CC[C@H]1CC[C@H](Cn2c(-c3cccc(C)c3)nc3nc(C(=O)O)nc(N[C@H](C)C4CCC4)c32)CC1 [Example 18.15, 6-{[(1R)-1-cyclobutylethyl]amino}-7-[(trans-4-ethylcyclohexyl)methyl]-8-(3-methylphenyl)-7H-purine-2-carboxylic acid]
IC50 (Table 18): 201 nM

Cc1cccc(-c2nc3nc(C(=O)O)nc(N4CCC[C@@H]4C4CCC4)c3n2Cc2ccc(C(F)(F)F)cc2)c1 [Example 7.8, 6-[(2R)-2-cyclobutylpyrrolidin-1-yl]-8-(3-methylphenyl)-7-[4-(trifluoromethyl)benzyl]-7H-purine-2-carboxylic acid]
IC50 (Table 7): 188 nM

C[C@@H](Nc1nc(C(=O)O)nc2nc(N3CCCCC3c3ccncc3)n(Cc3ccc(C(F)(F)F)cc3)c12)C1CCC1 (stereo partly drawn) [Example 9.115, 6-{[(1R)-1-cyclobutylethyl]amino}-8-(2-pyridin-4-ylpiperidin-1-yl)-7-[4-(trifluoromethyl)benzyl]-7H-purine-2-carboxylic acid]
IC50 (Table 9): 16.6 nM

C[C@@H](Nc1nc(-c2n[nH]c(=O)o2)nc2nc(N3CCOC4CCCC43)n(C[C@H]3CC[C@H](C)CC3)c12)C1CCC1 (single isomer, unassigned) [Example 11.141]
IC50 (Table 11): 0.841 nM

C[C@@H](Nc1nc([S+](C)[O-])nc2nc(N3CCOC[C@H]3c3ccccc3)n(C[C@H]3CC[C@H](C)CC3)c12)C1CCC1 (single isomer, unassigned) [Example 14.2]
IC50 [1]: 10.5 nM

CCC1CCCN1c1nc(C(=O)O)nc2nc(-c3cccc(C)c3)n(Cc3ccc(C(F)(F)F)cc3)c12 (centres unmarked) [Example 6.78, 6-(2-ethylpyrrolidin-1-yl)-8-(3-methylphenyl)-7-[4-(trifluoromethyl)benzyl]-7H-purine-2-carboxylic acid]
inhibition at 1 µM (read-out: inh. at 1000 nM (FRET)): 33%

CC(O)(c1nc2nc(-c3noc(=O)[nH]3)nc(-c3cccc(Cl)c3)c2n1C[C@H]1CC[C@H](C)CC1)C1CCOCC1 (mixture of isomers) [Example 23.4, 3-{6-(3-chlorophenyl)-8-[1-hydroxy-1-(tetrahydro-2H-pyran-4-yl)ethyl]-7-[(trans-4-methylcyclohexyl)methyl]-7H-purin-2-yl}-1,2,4-oxadiazol-5(4H)-one]
IC50 (Table 23): 19.2 nM

CC[C@H]1CC[C@H](Cn2c(-c3cc(C)ccc3OC)nc3nc(C(=O)O)nc(N[C@H](C)C4CCC4)c32)CC1 [Example 18.16, 6-{[(1R)-1-cyclobutylethyl]amino}-7-[(trans-4-ethylcyclohexyl)methyl]-8-(2-methoxy-5-methylphenyl)-7H-purine-2-carboxylic acid]
IC50 (Table 18): 31.8 nM

C[C@H](O)[C@H](Nc1nc2nc(-c3n[nH]c(=O)o3)nc(-c3cccc(Cl)c3)c2n1C[C@H]1CC[C@H](C)CC1)c1ccccc1 [Example 16.57, 5-{6-(3-chlorophenyl)-8-{[(1R,2S)-2-hydroxy-1-phenylpropyl]amino} -7-[(trans-4-methylcyclohexyl)methyl]-7H-purin-2-yl}-1,3,4-oxadiazol-2(3H)-one]
IC50 [1]: 5.54 nM

Cc1nc(C(C)Nc2nc3nc(-c4noc(=O)[nH]4)nc(N[C@H](C)C4CCC4)c3n2C[C@H]2CC[C@H](C)CC2)cs1 (stereo partly drawn) [Example 11.86, 3-(6-{[(1R)-1-cyclobutylethyl]amino}-7-[(trans-4-methylcyclohexyl)methyl]-8-{[1-(2-methyl-1,3-thiazol-4-yl)ethyl]amino} -7H-purin-2-yl)-1,2,4-oxadiazol-5(2H)-one]
IC50 (Table 11): 3.39 nM

CCOc1cc(C(C)C)cc(-c2nc3nc(C(=O)O)nc(N[C@H](C)C4CCC4)c3n2C[C@H]2CC[C@H](C)CC2)n1 [Example 15.4, 6-(((R)-1-cyclobutylethyl)amino)-8-(6-ethoxy-4-isopropylpyridin-2-yl)-7-((trans-4-methylcyclohexyl)methyl)-7H-purine-2-carboxylic acid]
IC50 [1]: 4.44 nM

CC(C)c1ccnc(-c2nc3nc(C(=O)O)nc(N[C@H](C)C4CCC4)c3n2C[C@H]2CC[C@H](C)CC2)c1 [Example 15.1, 6-(((R)-1-cyclobutylethyl)amino)-8-(4-isopropylpyridin-2-yl)-7-((trans-4-methylcyclohexyl)methyl)-7H-purine-2-carboxylic acid]
IC50 [1]: 1.3 nM

CC1CCCN(c2nc3nc(C(=O)O)nc(N[C@H](C)C4CCC4)c3n2C[C@H]2CC[C@H](C)CC2)C1c1ccccc1 (stereo partly drawn) [Example 11.6, 6-(((R)-1-cyclobutylethyl)amino)-8-(3-methyl-2-phenylpiperidin-1-yl)-7-((trans-4-methylcyclohexyl)methyl)-7H-purine-2-carboxylic acid]
IC50 (Table 11): 1.82 nM

C[C@@H](Nc1nc(C(=O)O)nc2nc(N3CCCCC3c3ccccc3)n(Cc3ccc(C(F)(F)F)cc3)c12)C1CCC1 (stereo partly drawn) [Example 9.44, 6-{[(1R)-1-cyclobutylethyl]amino}-8-(2-phenylpiperidin-1-yl)-7-[4-(trifluoromethyl)benzyl]-7H-purine-2-carboxylic acid]
IC50 (Table 9): 3.67 nM

C=C(c1nc2nc(-c3noc(=O)n3C)nc(N[C@H](C)C3CCC3)c2n1C[C@H]1CC[C@H](C)CC1)C(C)(C)C [Example 22.33, 3-(6-{[(1R)-1-cyclobutylethyl]amino}-8-(2,2-dimethyl-1-methylidenepropyl)-7-[(trans-4-methylcyclohexyl)methyl] -7H-purin-2-yl)-4-methyl-1,2,4-oxadiazol-5(4H)-one]
IC50 (Table 22): 291 nM
